Data: ChEMBL document CHEMBL1201862, “PubChem BioAssay data set” (2004)
Where “and” joins values, the source holds several entries; their conditions need not be identical. Equal entries are not always repeated. Calls of active or inactive are those of the source.

Assays:
[1] = target: T1, Sphingosine 1-phosphate receptor 4 (Homo sapiens, UniProt O95977); assay: Fluorescence dose response cell-based high throughput screening assay for agonists of the Sphingosine 1-Phosphate Receptor 4 (S1P4). [Related pubchem assays: 1509 (Primary screen.), 1523 (Confirmation screen in triplicates.)]; type: functional
T1 sequence (O95977 whole entry): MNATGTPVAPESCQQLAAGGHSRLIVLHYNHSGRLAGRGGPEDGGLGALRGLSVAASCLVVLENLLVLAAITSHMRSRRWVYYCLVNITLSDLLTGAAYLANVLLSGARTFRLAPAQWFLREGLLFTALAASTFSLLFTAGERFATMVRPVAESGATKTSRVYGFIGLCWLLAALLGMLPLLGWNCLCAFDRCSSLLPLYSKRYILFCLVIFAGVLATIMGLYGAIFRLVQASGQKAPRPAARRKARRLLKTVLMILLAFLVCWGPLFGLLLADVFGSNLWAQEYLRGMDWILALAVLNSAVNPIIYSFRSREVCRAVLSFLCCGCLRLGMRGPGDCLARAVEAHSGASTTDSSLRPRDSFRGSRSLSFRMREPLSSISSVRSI

[2] = target: Sphingosine 1-phosphate receptor 1 (Homo sapiens, UniProt P21453); assay: Fluorescence-based counterscreen assay for S1P4 agonists: Cell-based dose response high throughput screening assay to identify agonists of the Sphingosine 1-Phosphate Receptor 1 (S1P1). [Related pubchem assays (depositor defined):AID1509, AID1523, AID1801, AID463107, AID463118, AID463119, AID463122, AID463123, AID463129, AID463225, AID504400, AID504460]; type: functional
Sequence of Sphingosine 1-phosphate receptor 1 (P21453 whole entry): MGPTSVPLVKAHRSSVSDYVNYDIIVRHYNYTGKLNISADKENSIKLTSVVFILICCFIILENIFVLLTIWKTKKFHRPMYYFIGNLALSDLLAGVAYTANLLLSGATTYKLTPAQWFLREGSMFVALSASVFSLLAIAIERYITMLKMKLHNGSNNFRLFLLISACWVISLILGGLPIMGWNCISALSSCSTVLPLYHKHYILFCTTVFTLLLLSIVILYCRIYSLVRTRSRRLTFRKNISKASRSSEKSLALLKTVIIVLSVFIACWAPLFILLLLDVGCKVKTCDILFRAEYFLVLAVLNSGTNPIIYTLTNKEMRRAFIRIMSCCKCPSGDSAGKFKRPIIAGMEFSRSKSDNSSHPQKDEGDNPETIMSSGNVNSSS

[3] = target: T2, Rac GTPase-activating protein 1 (Homo sapiens, UniProt Q9H0H5); assay: MgcRacGAP GTPase-activating activity inhibitors, confirmation, biochemical, ADP Hunter fluorescence, primary and confirmatory (AID 624330); type: functional
T2 sequence (Q9H0H5 whole entry): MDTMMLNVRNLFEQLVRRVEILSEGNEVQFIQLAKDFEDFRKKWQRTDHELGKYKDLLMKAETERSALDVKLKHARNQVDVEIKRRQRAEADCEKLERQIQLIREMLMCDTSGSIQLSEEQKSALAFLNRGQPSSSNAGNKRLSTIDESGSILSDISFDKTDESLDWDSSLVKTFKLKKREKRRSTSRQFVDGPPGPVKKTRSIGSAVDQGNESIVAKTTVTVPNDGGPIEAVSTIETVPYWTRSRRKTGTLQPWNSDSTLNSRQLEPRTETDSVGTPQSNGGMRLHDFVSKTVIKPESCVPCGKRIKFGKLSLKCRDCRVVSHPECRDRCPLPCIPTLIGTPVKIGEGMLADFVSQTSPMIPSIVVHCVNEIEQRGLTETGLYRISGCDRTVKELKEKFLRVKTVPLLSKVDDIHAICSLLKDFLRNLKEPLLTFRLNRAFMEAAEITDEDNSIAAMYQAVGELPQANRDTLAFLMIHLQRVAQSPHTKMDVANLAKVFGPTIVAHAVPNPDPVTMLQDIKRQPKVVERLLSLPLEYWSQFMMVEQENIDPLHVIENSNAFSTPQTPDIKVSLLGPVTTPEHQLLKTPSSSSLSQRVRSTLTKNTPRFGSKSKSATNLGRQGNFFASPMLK

Albumin = Albumin (Bos taurus, UniProt P02769); assay: Counterscreen for inhibitors of T-cell receptor (TCR)-CD3 interaction: Fluorescence-based biochemical high throughput dose response assay to identify inhibitors of T-cell receptor (TCR)-CD3 interaction using a TAMRA-labeled BSA probe.; type: functional
[4] = target: T3, Voltage-gated N-type calcium channel alpha-1B subunit/Amyloid beta A4 precursor protein-binding family A member 1 (Homo sapiens, UniProt Q00975+Q02410); type: protein assay
T3 sequence (Q00975 whole entry): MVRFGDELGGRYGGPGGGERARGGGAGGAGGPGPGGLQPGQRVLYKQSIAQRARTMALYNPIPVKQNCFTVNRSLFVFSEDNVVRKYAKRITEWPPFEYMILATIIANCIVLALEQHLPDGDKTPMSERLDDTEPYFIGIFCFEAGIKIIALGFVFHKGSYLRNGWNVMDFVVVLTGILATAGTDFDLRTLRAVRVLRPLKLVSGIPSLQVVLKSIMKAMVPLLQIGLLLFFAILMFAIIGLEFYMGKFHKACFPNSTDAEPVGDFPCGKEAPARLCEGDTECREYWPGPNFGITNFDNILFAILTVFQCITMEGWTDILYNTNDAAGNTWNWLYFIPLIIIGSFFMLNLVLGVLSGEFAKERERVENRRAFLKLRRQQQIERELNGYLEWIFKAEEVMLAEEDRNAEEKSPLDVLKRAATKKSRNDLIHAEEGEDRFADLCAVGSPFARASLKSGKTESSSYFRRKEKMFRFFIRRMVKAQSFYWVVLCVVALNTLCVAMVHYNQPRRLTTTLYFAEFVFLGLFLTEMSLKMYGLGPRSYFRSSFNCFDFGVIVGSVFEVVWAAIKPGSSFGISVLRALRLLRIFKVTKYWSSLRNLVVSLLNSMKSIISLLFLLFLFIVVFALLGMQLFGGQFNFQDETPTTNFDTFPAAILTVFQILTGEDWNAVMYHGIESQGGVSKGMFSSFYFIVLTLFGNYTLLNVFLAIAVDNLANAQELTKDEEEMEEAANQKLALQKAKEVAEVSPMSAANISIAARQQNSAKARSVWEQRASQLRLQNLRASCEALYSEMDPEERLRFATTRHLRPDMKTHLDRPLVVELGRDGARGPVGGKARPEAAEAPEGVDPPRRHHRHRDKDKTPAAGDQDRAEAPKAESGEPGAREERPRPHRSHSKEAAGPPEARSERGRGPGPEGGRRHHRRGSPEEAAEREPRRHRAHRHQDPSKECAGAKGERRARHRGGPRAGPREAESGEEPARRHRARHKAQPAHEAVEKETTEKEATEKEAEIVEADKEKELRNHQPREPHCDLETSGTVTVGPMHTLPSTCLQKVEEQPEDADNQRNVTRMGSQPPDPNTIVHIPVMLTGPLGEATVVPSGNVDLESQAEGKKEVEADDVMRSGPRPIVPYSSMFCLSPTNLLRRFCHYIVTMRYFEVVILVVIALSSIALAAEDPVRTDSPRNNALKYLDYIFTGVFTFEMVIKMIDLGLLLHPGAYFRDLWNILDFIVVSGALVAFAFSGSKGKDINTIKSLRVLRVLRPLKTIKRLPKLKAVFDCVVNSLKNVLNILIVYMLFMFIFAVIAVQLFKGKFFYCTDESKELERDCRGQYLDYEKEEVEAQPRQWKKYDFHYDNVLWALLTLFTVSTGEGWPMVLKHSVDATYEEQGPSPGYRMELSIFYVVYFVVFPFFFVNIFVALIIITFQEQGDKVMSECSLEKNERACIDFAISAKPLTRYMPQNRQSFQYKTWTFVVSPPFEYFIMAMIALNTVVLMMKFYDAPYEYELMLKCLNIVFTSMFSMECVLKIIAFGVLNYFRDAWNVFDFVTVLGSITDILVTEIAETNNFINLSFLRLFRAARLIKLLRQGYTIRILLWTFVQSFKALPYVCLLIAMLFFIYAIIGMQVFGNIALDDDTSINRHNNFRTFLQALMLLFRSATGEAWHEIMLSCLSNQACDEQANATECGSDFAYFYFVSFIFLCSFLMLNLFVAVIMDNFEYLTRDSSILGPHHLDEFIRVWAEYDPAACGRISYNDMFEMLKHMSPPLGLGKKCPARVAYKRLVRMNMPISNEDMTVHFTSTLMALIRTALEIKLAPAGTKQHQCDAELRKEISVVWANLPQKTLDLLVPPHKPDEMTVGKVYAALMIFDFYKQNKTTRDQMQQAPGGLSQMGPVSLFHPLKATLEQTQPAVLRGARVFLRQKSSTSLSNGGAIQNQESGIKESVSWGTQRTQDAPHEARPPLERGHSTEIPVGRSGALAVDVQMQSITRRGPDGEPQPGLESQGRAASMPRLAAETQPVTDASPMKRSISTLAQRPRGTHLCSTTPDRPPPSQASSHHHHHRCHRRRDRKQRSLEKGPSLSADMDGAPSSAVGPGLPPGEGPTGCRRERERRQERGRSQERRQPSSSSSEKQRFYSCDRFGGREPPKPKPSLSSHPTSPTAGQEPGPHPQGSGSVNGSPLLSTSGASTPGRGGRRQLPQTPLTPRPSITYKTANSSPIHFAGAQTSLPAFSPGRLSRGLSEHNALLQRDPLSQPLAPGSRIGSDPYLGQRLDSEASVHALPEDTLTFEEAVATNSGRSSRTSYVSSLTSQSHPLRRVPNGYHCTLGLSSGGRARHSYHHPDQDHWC
T3 sequence (Q02410 whole entry): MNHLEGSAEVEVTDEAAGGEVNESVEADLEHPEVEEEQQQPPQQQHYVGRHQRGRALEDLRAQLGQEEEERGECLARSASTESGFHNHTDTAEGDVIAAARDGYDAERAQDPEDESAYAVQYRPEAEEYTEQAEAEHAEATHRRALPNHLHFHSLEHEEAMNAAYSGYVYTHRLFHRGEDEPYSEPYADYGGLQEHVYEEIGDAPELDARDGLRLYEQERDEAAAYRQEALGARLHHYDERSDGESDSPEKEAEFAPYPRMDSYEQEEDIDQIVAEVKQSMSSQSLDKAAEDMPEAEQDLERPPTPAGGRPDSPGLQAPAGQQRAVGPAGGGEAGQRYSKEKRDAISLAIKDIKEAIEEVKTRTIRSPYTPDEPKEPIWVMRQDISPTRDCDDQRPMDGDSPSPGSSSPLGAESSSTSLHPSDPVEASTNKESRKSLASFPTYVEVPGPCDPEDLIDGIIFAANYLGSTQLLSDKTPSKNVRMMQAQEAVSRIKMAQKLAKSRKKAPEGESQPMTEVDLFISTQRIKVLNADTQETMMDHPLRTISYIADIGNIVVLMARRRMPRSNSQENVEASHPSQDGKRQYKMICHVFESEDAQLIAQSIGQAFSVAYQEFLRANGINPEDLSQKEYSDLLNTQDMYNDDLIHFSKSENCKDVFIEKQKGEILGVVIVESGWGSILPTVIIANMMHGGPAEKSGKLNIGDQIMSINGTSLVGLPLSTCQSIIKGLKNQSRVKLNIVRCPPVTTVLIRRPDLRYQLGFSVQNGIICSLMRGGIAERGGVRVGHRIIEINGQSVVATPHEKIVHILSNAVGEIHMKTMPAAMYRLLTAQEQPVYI

[5] = target: T3, Voltage-gated N-type calcium channel alpha-1B subunit/Amyloid beta A4 precursor protein-binding family A member 1; assay: disruptors of Mint-PDZ/N-type channel peptide interaction – biochemical, HTRF, SAR follow-up (AID 2489); type: functional
Genome polyprotein = Genome polyprotein (Hepatitis C virus, UniProt Q2Q167); assay: HCV core protein dimerization inhibitors, dose response, biochemical, TR-FRET (AID 2159); design: species or system Hepacivirus hominis;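 note: blocks dimerization of HCV core protein measured by TR-FRET between tagged core106 pairs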
Sequence of Genome polyprotein (Q2Q167 whole entry): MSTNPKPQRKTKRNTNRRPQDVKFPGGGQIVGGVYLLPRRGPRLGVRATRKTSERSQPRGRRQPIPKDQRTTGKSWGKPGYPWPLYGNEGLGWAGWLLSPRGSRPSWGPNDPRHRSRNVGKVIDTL

SUMO-activating enzyme [6] = target: T4, SUMO-activating enzyme (Homo sapiens, UniProt Q9UBT2); assay: SUMOylation inhibitor hit validation, confirmation, SUMOylation inhibitor project, biochemical, AlphaScreen (AID 2018); type: functional
T4 sequence (Q9UBE0 whole entry): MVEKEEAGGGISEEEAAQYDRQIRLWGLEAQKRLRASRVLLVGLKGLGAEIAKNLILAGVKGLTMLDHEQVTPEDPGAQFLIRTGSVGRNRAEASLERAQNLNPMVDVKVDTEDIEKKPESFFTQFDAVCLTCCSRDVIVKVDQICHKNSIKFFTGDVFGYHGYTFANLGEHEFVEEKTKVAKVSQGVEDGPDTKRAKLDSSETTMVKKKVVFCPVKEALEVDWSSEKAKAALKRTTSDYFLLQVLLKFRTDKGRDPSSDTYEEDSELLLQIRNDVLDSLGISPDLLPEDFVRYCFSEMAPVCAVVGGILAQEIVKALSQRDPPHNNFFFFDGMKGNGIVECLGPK
T4 sequence (Q9UBT2 whole entry): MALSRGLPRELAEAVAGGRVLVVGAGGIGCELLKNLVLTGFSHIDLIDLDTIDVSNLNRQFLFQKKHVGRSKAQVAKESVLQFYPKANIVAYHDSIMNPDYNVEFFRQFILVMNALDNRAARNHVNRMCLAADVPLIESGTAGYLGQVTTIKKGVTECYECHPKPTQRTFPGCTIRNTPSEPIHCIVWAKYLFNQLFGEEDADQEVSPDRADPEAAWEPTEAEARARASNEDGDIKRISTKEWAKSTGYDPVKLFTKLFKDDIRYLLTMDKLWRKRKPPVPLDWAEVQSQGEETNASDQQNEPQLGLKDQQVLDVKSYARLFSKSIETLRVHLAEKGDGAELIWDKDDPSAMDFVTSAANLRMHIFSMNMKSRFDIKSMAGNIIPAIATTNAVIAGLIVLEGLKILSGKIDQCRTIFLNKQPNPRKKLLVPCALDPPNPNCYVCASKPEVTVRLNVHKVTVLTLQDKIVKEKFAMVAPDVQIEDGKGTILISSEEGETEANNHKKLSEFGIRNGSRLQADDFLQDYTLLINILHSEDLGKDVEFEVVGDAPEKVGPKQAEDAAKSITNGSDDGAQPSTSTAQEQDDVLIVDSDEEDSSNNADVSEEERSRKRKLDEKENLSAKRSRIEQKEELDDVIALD

Bcl-2-like protein 10 = target: T5, Bcl-2-like protein 10 (Homo sapiens, UniProt Q9HD36); assay: displacers of TR3 peptide from Bcl-B, primary screen, selectivity assay for Bfl-1 inhibitor project, biochemical, fluorescence polarization, FITC-TR3 peptide (AID 748);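 note: fluorescence polarization from a fluorescein-labelled TR3 peptide binding purified Bcl-B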
T5 sequence (Q9HD36 whole entry): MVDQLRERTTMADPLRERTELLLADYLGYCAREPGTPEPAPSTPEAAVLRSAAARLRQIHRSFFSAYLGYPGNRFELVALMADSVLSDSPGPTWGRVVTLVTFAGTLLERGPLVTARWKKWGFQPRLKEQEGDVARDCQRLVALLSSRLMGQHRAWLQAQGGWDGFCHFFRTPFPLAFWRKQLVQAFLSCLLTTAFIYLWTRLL

SUMO-activating enzyme [7] = target: T4, SUMO-activating enzyme; assay: inhibitors of in vitro SUMOylation cascade, primary screen, biochemical, HTRF, uHTS (AID 2006); type: protein-complex assay
[8] = target: Protein-tyrosine kinase 2-beta (Homo sapiens, UniProt Q14289);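 note: potency of inhibitors of PYK2 kinase phosphorylation of poly-GT substrate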
[9] = target: T3, Voltage-gated N-type calcium channel alpha-1B subunit/Amyloid beta A4 precursor protein-binding family A member 1; assay: disruptors of Mint-PDZ/N-type channel peptide interaction – biochemical, HTRF, set 2, SAR follow-up (AID 434980); type: functional
Protein Rev = Protein Rev (Human immunodeficiency virus type 1 group M subtype B (isolate WMJ22)(HIV-1), UniProt P05866); assay: HIV-1 Rev-RRE RNA binding disruptors, dose response, biochemical, protein-RNA interaction (AID 842); design: species or system Human immunodeficiency virus 1
Sequence of Protein Rev (P05866 whole entry): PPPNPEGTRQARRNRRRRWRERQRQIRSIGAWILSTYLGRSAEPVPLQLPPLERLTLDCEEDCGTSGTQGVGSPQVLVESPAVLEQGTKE

[10] = target: T3, Voltage-gated N-type calcium channel alpha-1B subunit/Amyloid beta A4 precursor protein-binding family A member 1; type: protein assay; remark: listed apart in the source
SUMO E1/E2 = SUMO E1/E2 (Homo sapiens, UniProt P63279+Q9UBE0+Q9UBT2); assay: SAR analysis of SUMOylation using HTRF in an in-Vitro dose response assay. [Related pubchem assays (depositor defined):AID2006, AID2011, AID2018, AID2069, AID2658]; type: functional
Sequence of SUMO E1/E2 (Q9UBE0 whole entry): as the sequence (Q9UBE0 whole entry) above
Sequence of SUMO E1/E2 (Q9UBT2 whole entry): as the sequence (Q9UBT2 whole entry) above
Sequence of SUMO E1/E2 (P63279 whole entry): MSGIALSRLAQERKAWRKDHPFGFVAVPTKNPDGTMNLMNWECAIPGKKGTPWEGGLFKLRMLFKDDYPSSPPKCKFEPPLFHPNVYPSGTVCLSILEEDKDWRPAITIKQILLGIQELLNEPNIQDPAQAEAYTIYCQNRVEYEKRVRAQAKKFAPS

[11] = target: DNA (cytosine-5)-methyltransferase 1 (Homo sapiens, UniProt P26358); assay: DNMT1 methyltransferase inhibitors, confirmation, biochemical, fluorescent molecular beacon (AID 602386); type: functional
[12] = target: T6, Probable nicotinate-nucleotide adenylyltransferase (Staphylococcus aureus (strain N315), UniProt P65502); type: functional, Staphylococcus aureus subsp. aureus N315;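 for IC50 Mean: confirmatory dose-response retesting of NadD inhibitor hits first found in an ultra-high-throughput screen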
[13] = target: T6, Probable nicotinate-nucleotide adenylyltransferase; type: functional, Staphylococcus aureus subsp. aureus N315; details: read-out: IC50_Mean

| EC50 [1] | EC50 [2] | Compound | IC50 [3] | IC50 (Albumin) | IC50 [4] | IC50 [5] | IC50 (Genome polyprotein) | IC50 (SUMO-activating enzyme [6]) | IC50 (Bcl-2-like protein 10) | IC50 (SUMO-activating enzyme [7]) | IC50 [8] | IC50 [9] | IC50 (Protein Rev) | IC50 [10] | IC50 (SUMO E1/E2) | IC50 [11] | IC50 [12] | IC50 [13] |
| --- | --- | --- | --- | --- | --- | --- | --- | --- | --- | --- | --- | --- | --- | --- | --- | --- | --- | --- |
| 1.88 µM (active) | 4.14 µM (active) | CC(=O)c1cc2ccc(O)cc2oc1=O |  |  |  |  |  |  |  |  |  |  |  |  |  |  |  |  |
|  |  | O=C(N/N=C/c1ccc(F)cc1)c1cc(-c2ccco2)nc2ccccc12 | 108 µM (active) | > 94.1 µM (inactive) | 6.44 µM (active) | 14.6 µM (active) | > 49.8 µM (not active) | 2.28 µM (active) | 2.97 µM (active) | 10.6 µM (active) | 2.01 µM (active) | 5.57 µM (active) | > 79.4 µM (not active) | 8.83 µM (active) | 4.33 µM (active) and 8.06 µM (active) | 5.57 µM (active) | 10.8 µM (active) | 27.1 µM (active) |
